Reference: patent publication US6274611A, “Methods and compositions for inhibition of viral replication” (The United States of America as represented by the …, priority 1999, dated 2001)
“Also recorded” adds a separate entry of the source.

Columns and labels:
HIV-1 [1] = test: HIV-1 activation in TNF-α-treated OM-10.1 cultures, culture supernatant reverse transcriptase activity; assay type: cell-based, HIV-1 in OM-10.1 cells; conditions: for HIV-1 inhibitory activity in the OM-10.1 induction system: OM-10.1 cells, TNF-α induction
Method: (§1) FIG. 2 is a graph showing the inhibition of HIV-1 expression and toxicity in OM-10.1 cells by DRB, and similarity to inhibition imposed by chrysin and PD 144795. Reverse transcriptase activity (--.ae butted.--) was measured (as taught in Butera et al, Mol. Med. vol. 1, pp. 758-767 (1995)) in culture supernatants 48 hr after HIV activation, and cell viability (--.tangle-solidup.--) was assessed at 24 hr by flow cytometric analysis of propidium iodide exclusion. Inset: A graph showing the inhibition of HIV-1 expression in OM-10.1 cells by chrysin- (--Δ--) and PD 144795 (--.star.--) treatment of HIV-1.
(§2) OM-10.1 and HL-60 cells as described in Example 1 were propagated in RPMI-1640 supplemented with 10% heat-inactivated fetal calf serum, 2 mM glutamine, and 1% Pen-Strep. Induction of HIV-1 using TNF-α (Butera, S. T., et al, J. Virol. Vol. 65, pp. 4645-4653 (1991)), and antiviral assays (Butera, S. T., et al MoL Med. Vol. 1, pp. 758-767 (1995), Critchfield, J. W., et al., AIDS Res. Hum. Retr. Vol. 12, pp. 39-46 (1996)), were performed as described. For binding studies, cultures were grown to a density of 106 /ml, washed twice with cold PBS, and the cell pellet either flash-frozen in dry ice/ethanol for storage at -70° C., or immediately lysed in 1 ml cold lysis buffer/10^7 cells. Lysis buffer consisted of 0.02 M HEPES (pH 7.4), 0.5% Triton X-100, 0.3 M NaCl, 20 mM NaF, 1 mM each of Na4 P2 O7, Na3 VO4, DTT, EGTA and EDTA, 1 μg/ml each of leupeptin, aprotinin, and pepstatin, 0.5 mM PMSF, and 50 nM okadaic acid. Lysates were incubated on ice for 15 min, centrifuged at 10,000×g for 15 minutes at 4° C., then the supernatants were either used immediately or stored -70° C. For binding reactions with the chrysin affinity resin, lysates (2 ml) were diluted 1:2 with ice-cold 0.02 M HEPES (pH 7.4), then competitor compounds (or 0.1% final DMSO as the control), as indicated, were added to a final concentration of 10 μM and the lysates incubated on ice for 30 min. Chrysin-Sepharose (0.2 ml) was then added and the reactions gently mixed for 1 hr at 4° C. After 3 washes with cold 0.02 M HEPES (pH 7.4), 0.15 M NaCl, 0.25% Triton X-100, bound proteins were eluted with 2 ml 0.02 M ethanolamine (pH 9.5), 0.1% SDS, 0.5 mM chrysin, 1.0% DMSO at 23° C. Samples were concentrated via centrifugation at 23° C. through a 10 kD cut-off membrane (Centricon), then analyzed by SDS-PAGE (8%), and silver stained.
HIV-1 activation experiments were conducted in the presence or absence of DRB. […] Furthermore, the effective dose range of DRB (1-10 μM) was nearly identical to that of the other compounds (FIG. 2, inset), and toxicity over the effective dose range for the other compounds was also negligible.

casein kinase I = conditions: Shugar 1994; cited from earlier work
NF-κB = NF-κB activation and I-κB degradation upon cellular activation; assay type: cell-based
OM-10.1 cells = test: OM-10.1 culture viability (flow cytometric propidium iodide exclusion); assay type: cell-based, human; conditions: OM-10.1 cultures; viability assessed at 24 hr
Method: as §1

[2] = system: chrysin-binding proteins p44, p40, p29, p28 (subunits of CKII); test: Chrysin affinity resin binding reaction with competitor compounds in OM-10.1 cell lysates (SDS-PAGE silver stain, anti-CKII immunoblot); design: species or system human; conditions: for effect of competitor on binding of proteins (p44, p40, p29, p28) to the chrysin-resin: competitor 10 μM added to lysate of TNF-α-induced OM-10.1 cells; for effect of competitor on binding of proteins (p44, p40, p29, p28) to the chrysin-resin / effect of competitor on binding of p28 to chrysin resin: silver staining; for effect of competitor on immunodetection of α, α' and β subunits of CKII bound to the chrysin resin / effect of competitor on binding of p28 to chrysin resin: competitor 10 μM; for effect of competitor on immunodetection of α, α' and β subunits of CKII bound to the chrysin resin: anti-CKII immunoblot
Method: The affinity resin was made by attachment of 4'-OH-chrysin chrysin (apigenin) to epoxy-activated Sepharose 6B, resulting in chrysin in an ether-linkage. The resin (2 g, dry) was washed with water then 0.1 N NaOH, added to 60 ml 0.01 M apigenin in 0.1 N NaOH (or 0.1 N NaOH only for a non-derivatized control resin), and incubated with gentle mixing for 24 hr at 37° C. The resin then underwent a series of washes (Ghenbot, et al., Prot. Expr. Purif. Vol. 3, pp. 470-478 (1992)) and the residual reactive groups capped with 0.1 M ethanolamine for 16 hr at 37° C. After washing with water, the resin was stored at 4° C. in 0.2% NaN3.
as §2
For Western analysis, proteins were transferred to PVDF and probed with a combination of two antibody reagents, one recognizing an epitope common to both the α and α' subunit of CKII (Upstate Biotechnology) and the other reacting with the β subunit of CKII (a gift from D. Litchfield, University of Western Ontario). Final detection was with enhanced chemiluminescence (Amersham).
To identify the targets of HIV-1 inhibitory flavonoids, Sepharose was derivatized with the flavonoid chrysin and interacted with lysates from OM-10.1 cells as described in Example I. Cultures induced to maximally express HIV-1 (24 hr treatment with TNF-α) were utilized to ensure the presence of both cellular and viral proteins.
To further confirm that the chrysin-binding proteins were indeed the subunits of CKII, resin-binding reactions were performed using a selective inhibitor of CKII activity, 5,6 dichloro-1-β-D-ribofuranosylbenzimidazole (DRB), and the results analyzed by silver staining and anti-CKII immunoblotting. […] Since the apparent mass of the β chain of CKII is increased by phosphorylation (Luscher, B. L., et al. Eur. J. Biochem. Vol. 220, pp. 521-526 (1994)), it was possible that p28 represented an unphosphorylated form of p29. […] Furthermore, the major p28 band observed by silver stain was absent by immunoblot analysis. This absence was not due to an inability of the CKIIβ antibody to recognize dephosphorylated CKIIβ, which had lower apparent mass following alkaline phosphatase treatment. […]

HIV-1 [3] = conditions: latently and chronically infected cells; Butera et al. 1995, Critchfield et al. 1996; cited from earlier work
[4] = biological target: human recombinant CKII (ααββ form) (Homo sapiens, UniProt P68400); test: Human recombinant CKII enzyme kinetics; assay type: biochemical; conditions: for inhibition of CKII enzymatic activity: 37° C.
human recombinant CKII (ααββ form), sequence (P68400 whole entry): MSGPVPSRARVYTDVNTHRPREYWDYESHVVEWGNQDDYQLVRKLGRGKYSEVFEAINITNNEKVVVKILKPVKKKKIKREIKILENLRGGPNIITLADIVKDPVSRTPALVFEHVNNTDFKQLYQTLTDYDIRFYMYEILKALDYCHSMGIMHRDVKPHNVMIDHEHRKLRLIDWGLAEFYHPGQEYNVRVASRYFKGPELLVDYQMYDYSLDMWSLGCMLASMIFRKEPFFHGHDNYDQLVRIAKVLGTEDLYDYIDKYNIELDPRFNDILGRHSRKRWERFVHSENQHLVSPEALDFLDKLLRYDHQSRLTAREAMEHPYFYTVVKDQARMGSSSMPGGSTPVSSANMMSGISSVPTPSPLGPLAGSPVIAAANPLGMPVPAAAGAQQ
human recombinant CKII (ααββ form), sequence (P67870 whole entry partner): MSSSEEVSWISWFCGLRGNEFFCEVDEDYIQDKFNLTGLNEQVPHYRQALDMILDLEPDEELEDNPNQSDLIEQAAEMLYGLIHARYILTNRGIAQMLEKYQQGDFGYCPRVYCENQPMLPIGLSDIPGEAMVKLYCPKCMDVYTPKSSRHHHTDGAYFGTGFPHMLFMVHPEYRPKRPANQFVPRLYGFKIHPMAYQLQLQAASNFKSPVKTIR
Method: Reactions were carried out at 37° C. in 0.025 M HEPES (pH 7.4), 0.15 M KCl, 0.01 M MgCl2, 1.4 mM β-mercaptoethanol, 1 mM DTT, 1 mM EGTA, 10% glycerol, 0.32 mM synthetic CKII peptide, ([…]), 1 μU/μl CKII, and the indicated concentrations of ATP and test agents. Unincorporated [γ-^32 P] ATP was removed by spotting reactions onto P81 phosphocellulose paper (Whatman) and washing in 0.75 mM phosphoric acid then acetone.

HIV-1 [5] = test: Down modulation of cell surface CD4 in TNF-α-induced OM-10.1 cultures; assay type: cell-based, HIV-1 in OM-10.1 cells
Description: Critical tools for studying the efferent phase of the HIV life cycle are the latently infected cell lines such as UI, ACH2, J1, and OM-10.1. […] HIV activation can also be achieved by phorbol esters such as PMA (phorbol -12-myristate-13-acetate).
The CD4 response is a direct consequence of viral activation and allows a rapid, convenient and highly reproducible assessment of treatments that modify TNF-α expression of HIV from its latent state. In addition, the down modulation of CD4 is not affected by inhibitors of virion assembly or release such as protease inhibitors. Thus, by measuring cell surface CD4 and a virion constituent such as reverse transcriptase (RT), it is possible to discriminate between inhibition of HIV assembly, release and earlier events.

HIV = conditions: acutely infected H9 cells (baicalin also CEM-ss cells and PBMCs); cited from earlier work

NCCNS(=O)(=O)c1ccc(Cl)c2ccncc12 [CKI-7]
HIV-1 inhibitory activity in the OM-10.1 induction system (HIV-1 [1]): without HIV-1 inhibitory activity

OC[C@H]1O[C@@H](n2cnc3cc(Cl)c(Cl)cc32)[C@H](O)[C@@H]1O [DRB, 5,6-dichloro-1-β-D-ribofuranosylbenzimidazole]
EC50 (HIV-1 [1]; Human immunodeficiency virus 1, TNF-α-treated OM-10.1 cultures, RT measured 48 hr after HIV activation, read-out: ED50, reduction in culture supernatant reverse transcriptase activity): ~2000 nM
HIV-1 inhibitory activity in the OM-10.1 induction system (HIV-1 [1]): markedly inhibited; also recorded: potently inhibits
effective dose range for inhibition of HIV-1 expression (HIV-1 [1]; TNF-α-treated OM-10.1 cultures): 1 to 10 µM
inhibitory activity against casein kinase I (casein kinase I): appreciable inhibitory activity
NF-κB activation and function (NF-κB; TNF-α-treated OM-10.1 cultures): appeared normal
degradation of I-κB upon cellular activation (NF-κB; in the presence of compound): Normal degradation
culture viability / toxicity over the effective dose range (OM-10.1 cells): did not decline
effect of competitor on binding of proteins (p44, p40, p29, p28) to the chrysin-resin [2]: prevented the binding of the same proteins that were competed by free chrysin
effect of competitor on immunodetection of α, α' and β subunits of CKII bound to the chrysin resin [2]: eliminated their immunodetection
effect of competitor on binding of p28 to chrysin resin [2]: the only exception being p28

COc1ccc2c(c1)c(OC(C)C)c(C(N)=O)[s+]2[O-] (stereo not shown) [PD 144795]
inhibition of HIV transcription (HIV-1 [3]): inhibiting HIV transcription at micromolar concentrations
HIV-1 inhibitory activity in the OM-10.1 induction system (HIV-1 [1]): HIV-inhibitory
inhibition of CKII enzymatic activity [4]: inhibition of CKII enzyme activity
effect of competitor on binding of proteins (p44, p40, p29, p28) to the chrysin-resin [2]: pattern of binding inhibition identical to that of DRB
effect of competitor on binding of p28 to chrysin resin [2]: did not alter

O=C1CN=C(c2ccc[nH]2)c2cc(Cl)ccc2N1 [Ro 5-3335]
inhibition of RT (HIV-1 [1]; TNF-α-induced OM-10.1 cultures): inhibits both of these measures to a similar extent
inhibition of down modulation of CD4 (HIV-1 [5]): inhibits both of these measures to a similar extent

O=c1cc(-c2ccc(O)cc2)oc2cc(O)cc(O)c12 [apigenin]
HIV-1 inhibitory activity in the OM-10.1 induction system (HIV-1 [1]): HIV-inhibitory
effect of competitor on binding of proteins (p44, p40, p29, p28) to the chrysin-resin [2]: specifically inhibited in their binding to the resin

O=C(O)[C@H]1O[C@@H](Oc2cc3oc(-c4ccccc4)cc(=O)c3c(O)c2O)[C@H](O)[C@@H](O)[C@@H]1O [baicalin]
inhibition of HIV replication in acutely infected cells (HIV): inhibits HIV replication

Oc1cc(O)c2c(c1)OC(c1ccc(O)c(O)c1)C(O)C2 (stereo not shown) [catechin]
HIV-1 inhibitory activity in the OM-10.1 induction system (HIV-1 [1]): lacking HIV-1 inhibitory activity
effect of competitor on binding of proteins (p44, p40, p29, p28) to the chrysin-resin [2]: no effect

O=c1cc(-c2ccccc2)oc2cc(O)cc(O)c12 [chrysin]
inhibition of HIV transcription (HIV-1 [3]): potent inhibitors
kinetics of CKII inhibition with respect to ATP [4]: competitive kinetics with respect to ATP
inhibition of CKII enzymatic activity [4]: inhibit human recombinant CKII enzymatic activity
effect of competitor on binding of proteins (p44, p40, p29, p28) to the chrysin-resin [2]: specifically inhibited in their binding to the resin
effect of competitor on immunodetection of α, α' and β subunits of CKII bound to the chrysin resin [2]: eliminated their immunodetection
inhibition of HIV replication in acutely infected cells (HIV): significant inhibitory activity

COc1ccc([C@@H]2CC(=O)c3c(O)cc(O[C@@H]4O[C@H](CO[C@@H]5O[C@@H](C)[C@H](O)[C@@H](O)[C@H]5O)[C@@H](O)[C@H](O)[C@H]4O)cc3O2)cc1O [hesperidin]
HIV-1 inhibitory activity in the OM-10.1 induction system (HIV-1 [1]): lacking HIV-1 inhibitory activity
effect of competitor on binding of proteins (p44, p40, p29, p28) to the chrysin-resin [2]: no effect
